From patent publication US10851073B2, “Protein tyrosine phosphatase inhibitors and methods of use thereof” (Calico Life Sciences LLC, priority 2019, dated 2020)
Like-named read-outs stand apart in the source and are kept apart here.

Columns and labels:
[1] = target: T1, His tagged full-length PTPN1 protein (Homo sapiens, UniProt P18031); assay: Mobility shift assay (MSA) used to determine potency of PTPN1 inhibitors; format: biochemical; settings: enzyme 0.5 nM, substrate 2 μM
T1 construct: made in house
T1 sequence (P18031 with tags, fused parts or gaps): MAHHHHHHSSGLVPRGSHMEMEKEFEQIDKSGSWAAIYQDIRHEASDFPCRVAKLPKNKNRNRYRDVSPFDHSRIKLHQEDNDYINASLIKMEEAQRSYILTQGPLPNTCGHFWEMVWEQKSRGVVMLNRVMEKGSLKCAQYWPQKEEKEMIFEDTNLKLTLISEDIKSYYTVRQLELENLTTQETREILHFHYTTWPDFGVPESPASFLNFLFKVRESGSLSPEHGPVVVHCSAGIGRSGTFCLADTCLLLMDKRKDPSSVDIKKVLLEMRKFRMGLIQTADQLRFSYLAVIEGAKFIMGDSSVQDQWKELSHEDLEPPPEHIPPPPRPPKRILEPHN
How it was run: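 Full-length His-tagged human PTPN1 (0.5 nM) was preincubated 10 min at room temperature with compound (12-point, 1:3 dilution) in HEPES pH 7.5 buffer with EGTA, EDTA, Tween 20 and DTT. A 2 μM fluorescent phospho-insulin receptor peptide was then added for 10 min before quench. Mobility-shift % conversion gave % inhibition and IC50.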

[2] = system: B16F10 mouse melanoma cells; assay: B16F10 IFNγ-induced cellular growth inhibition assay; format: cell-based; settings: B16-F10, with 0.5 ng/mL IFNγ
How it was run: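 B16F10 cells grown in DMEM+10% FBS, with or without 0.5 ng/mL final mouse IFNγ, and dosed in triplicate at 100 μM to 0.001 μM final (0.1% DMSO). Confluence imaged every 6 h for 5 days; percent growth inhibition versus DMSO/with-IFNγ control taken once DMSO/no-IFNγ wells exceeded 95% confluence, giving IC50.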

[3] = system: Pan T cells isolated from C57BL6 splenocytes; assay: T cell function assays (IFNγ and TNFα in supernatants); format: cell-based, mouse; settings: 0.3 μM compound, 3 days; for IFNγ [pg/mL] anti-CD3/CD28 / TNFα [pg/mL] anti-CD3/CD28: anti-CD3/CD28 stimulation
Experimental: Example 231: T Cell Function Assays Pan T cells were isolated from C57BL6 splenocytes using a MACS Pan T cell isolation kit II (Miltenyi Biotec, Auburn, Calif.) according to the manufacturer's instructions. Isolated T cells (200,000 cells/well in a 96 well flat-bottom plate) were cultured in RPMI 1640 supplemented with 10% FBS, […] 2-mercaptoethanol, 100 U/mL penicillin, and 100 μg/mL streptomycin, and incubated with 0.3 μM compound or DMSO in duplicates. After 1 hour, mouse T cell activator CD3/CD28 Dynabeads (ThermoFisher Scientific, Waltham, Mass.) were added at a 1:5 beads to cells ratio to stimulate the T cells for 3 days. T cells with or without compound were incubated in the absence of T cell activator beads to evaluate if compounds nonspecifically stimulate the T cells. After 3 days of stimulation, supernatants were collected and IFNγ and TNFα in supernatants were assessed using an MSD V-plex assay (Meso Scale Discovery, Rockville, Md.).

[4] = read-out: B16F10 Growth Inhibition IC50

Structure (SMILES)	IC50 [1] [nM]	IC50 ([2]; read-out: B16F10 GI IC50) [nM]	IC50 [2, 4] [nM]	IFNγ [pg/mL] anti-CD3/CD28 [3] [pg/mL]	TNFα [pg/mL] anti-CD3/CD28 [3] [pg/mL]	IFNγ [pg/mL] no stimulation [3] [pg/mL]	TNFα [pg/mL] no stimulation [3] [pg/mL]
O=C1CN(c2c(O)cc3c(c2F)C[C@H](NCCCC(F)F)CC3)S(=O)(=O)N1 (single isomer, unassigned) [Compound 199]	< 1	< 1000	< 50	212.9	147.8	1.8	1.1
CC(C)CCN[C@@H]1CCc2cc(O)c(N3CC(=O)NS3(=O)=O)c(F)c2C1 (single isomer, unassigned) [Compound 118]	1 to 10	< 1000	110	261.3	159.1	1.8	1.1
O=C1CN(c2c(O)cc3c(c2F)C[C@H](NCCC2CC2)CC3)S(=O)(=O)N1 (single isomer, unassigned) [Compound 133]	1 to 10	< 1000	220	204.1	142.0	1.0	0.8
CC(C)(CCN[C@@H]1CCc2cc(O)c(N3CC(=O)NS3(=O)=O)c(F)c2C1)C(F)(F)F (single isomer, unassigned) [Compound 177]	1 to 10	< 1000	140	168.2	113.7	1.0	0.7

More lines, main results first:

IC50 [1] [nM]	IC50 ([2]; read-out: B16F10 GI IC50) [nM]	IC50 [2, 4] [nM]	Structure (SMILES)	IFNγ [pg/mL] anti-CD3/CD28 [3] [pg/mL]	TNFα [pg/mL] anti-CD3/CD28 [3] [pg/mL]	IFNγ [pg/mL] no stimulation [3] [pg/mL]	TNFα [pg/mL] no stimulation [3] [pg/mL]
10 to 100	1000 to 10000	1500	O=C1CN(c2c(O)cc3c(c2F)C[C@@H](NCCC(F)F)CC3)S(=O)(=O)N1 (single isomer, unassigned) [Compound 259]	–	–	–	–
1 to 10	< 1000	180	O=C1CN(c2c(O)cc3c(c2F)C[C@H](NCCC(F)F)CC3)S(=O)(=O)N1 (single isomer, unassigned) [Compound 260]	139.6	100.0	0.8	1.1
